# In paper PMC8218542, “Iodine-catalyzed electrophilic substitution of indoles: Synthesis of (un)symmetrical diindolylmethanes with a quaternary carbon center” (Beilstein Journal of Organic Chemistry, 2021):
# Entries after “also recorded” stand apart in the source; their conditions may differ. Like-named read-outs stand apart in the source and are kept apart here.
# How the values were obtained:
# [1] = target: T1, Human CB1 receptor (Homo sapiens, UniProt P21554); experiment: Radioligand binding assay vs [3H]CP55,940, membranes of CHO cells expressing human CB1; conditions: CHO cell membranes
# T1 sequence (P21554 whole entry): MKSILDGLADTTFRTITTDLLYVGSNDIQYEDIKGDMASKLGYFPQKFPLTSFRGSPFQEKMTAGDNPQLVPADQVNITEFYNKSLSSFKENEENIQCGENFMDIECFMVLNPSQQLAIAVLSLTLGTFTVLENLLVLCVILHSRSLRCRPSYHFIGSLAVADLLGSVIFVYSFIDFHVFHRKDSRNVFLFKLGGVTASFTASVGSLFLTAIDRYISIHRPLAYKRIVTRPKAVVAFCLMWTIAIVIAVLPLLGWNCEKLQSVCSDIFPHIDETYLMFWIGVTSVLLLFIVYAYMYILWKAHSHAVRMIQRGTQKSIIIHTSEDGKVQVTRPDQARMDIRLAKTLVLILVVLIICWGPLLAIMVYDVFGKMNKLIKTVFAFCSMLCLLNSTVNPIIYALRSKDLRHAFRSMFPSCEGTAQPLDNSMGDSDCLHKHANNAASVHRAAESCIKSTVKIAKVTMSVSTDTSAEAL
# Procedure: (§1) Radioligand b inding assays at CB1 and CB 2 receptors
# (§2) Competition binding assays were performed using the CB receptor agonist radioligand [3H](−)- cis-3-[2-hydroxy-4-(1,1-dimethylheptyl)phenyl]-trans-4-(3-hydroxypropyl)-cyclohexanol as previously described [S1]. Briefly, membrane preparations of Chinese hamster ovary (CHO) cells stably expressing human CB1 or CB2 receptor were used (30 μg of protein/well for CB1 and 16 µg of protein/well for CB2-receptor preparations). All stock solutions of test compounds ([…]) were prepared in DMSO. After 2 h of incubation, a mixture containing 15 μL of the […]
# (§3) mM MgCl2, 0.1% BSA, pH 7.4), 60 μL of membrane preparation (in 50 mM TRIS buffer) and 465 μL of assay buffer, were filtered through GF/C glass fiber filters (presoaked for 0.5 h in 0.3% aq. polyethyleneimine solution), using a Brandel 96-channel cell harvester (Brandel, Gaithersburg, MD). Radioactivity on the filters was then measured in a liquid scintillation counter (Topcount NXT, Packard/Perkin-Elmer) after 10 h of preincubation with 50 µl of scintillation cocktail (Multiscint 25, Perkin-Elmer). […]
# [2] = target: T2, Human CB2 receptor (Homo sapiens, UniProt P34972); experiment: Radioligand binding assay vs [3H]CP55,940, membranes of CHO cells expressing human CB2; design: expressed in transfected cells; membrane preparations; conditions: CHO cell membranes
# T2 sequence (P34972 whole entry): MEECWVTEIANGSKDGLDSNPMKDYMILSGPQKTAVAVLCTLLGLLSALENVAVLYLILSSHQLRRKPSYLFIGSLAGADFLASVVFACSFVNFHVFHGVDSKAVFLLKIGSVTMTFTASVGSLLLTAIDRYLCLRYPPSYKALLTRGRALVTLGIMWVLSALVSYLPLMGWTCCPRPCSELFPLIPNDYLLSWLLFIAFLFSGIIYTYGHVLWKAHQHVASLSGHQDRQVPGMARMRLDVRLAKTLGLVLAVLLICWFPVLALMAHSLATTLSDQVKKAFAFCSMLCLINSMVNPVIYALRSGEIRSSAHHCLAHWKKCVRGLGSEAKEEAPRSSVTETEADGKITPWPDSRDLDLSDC
# Procedure: as §1, §2, §3
# [3] = system: control HEK293 cells; experiment: Trupath BRET2 assay in control HEK293 cells transfected with only Gαi1-Rluc8, ß3 and γ9-GFP2; format: cell-based; conditions: cells without CB receptor
# [4] = target: T1, Human CB1 receptor; experiment: Trupath BRET2 functional assay in HEK293 cells transfected with human CB1; format: cell-based; design: expressed in transfected cells; host or cells: HEK293 cells, transient transfection (Lipofectamine 2000); receptor in pcDNA3.1(+); Trupath plasmids Addgene kit #1000000163; conditions: for agonistic activity at human CB1: agonist mode, BRET2; for IC50: read-out: IC50, blockade of CB1 receptor activation
# Procedure: (§4) Functional assays at CB1 and CB2 receptors
# (§5) Functional assays of the selected compounds were assessed using the Trupath BRET 2 assay system as recently described [S2]. The Trupath plasmids were a gift from Bryan Roth’s Laboratory (Addgene kit #1000000163). Briefly, HEK293 cells were seeded in a 6 well-plate at adensity of 700.000 cells/well and incubated for 4h. Plasmids containing Gαi1-Rluc8, ß3 and γ9-GFP2 and either human CB 1 or CB2 in pcDNA3.1(+) at a ratio of 1:1:1:1 were mixed with Lipofectamine 2000 and transfected according to the manufacturer’s protocol. The cells were further incubated overnight, then harvested and seeded at a density of 40.000 cells/well in 96 well-plates with full growth medium, and cultured for another 24h. On the day of the […]
# (§6) culture medium was carefully discarded and replaced by 60 µL of HBSS-HEPES buffer, followed by the addition of 10 µL of 50 µM Coelenterazine 400a. For testing of agonistic activity, the test compounds were added to the wells in a volume of 30 µL and incubated for 5 min. For antagonist testing, compounds were added in a volume of 15 µL, incubated for 5 min, […]
# (§7) incubated for another 5 min. Test compounds were dissolved in DMSO and the final DMSO concentration in the assays was 1%. Finally, the signal was measured using a Mitras LB400 according to previously published literature[S3]. Data were obtained from 3-4independent experiments performed in duplicate.
# [5] = target: T2, Human CB2 receptor; experiment: Trupath BRET2 functional assay in HEK293 cells transfected with human CB2; format: cell-based; design: expressed in transfected cells; host or cells: HEK293 cells, transient transfection (Lipofectamine 2000); receptor in pcDNA3.1(+); Trupath plasmids Addgene kit #1000000163; conditions: for agonistic activity at human CB2: agonist mode, BRET2
# Procedure: as §4, §5, §6, §7
# [6] = target: T1, Human CB1 receptor; design: method as in PMID 7565624; conditions: previously reported; cited from earlier work
# [7] = system: CB1 receptors; design: method as in PMID 19286662; conditions: previously shown; cited from earlier work
# [8] = target: T2, Human CB2 receptor; design: expressed in transfected cells; membrane preparations; method as in PMID 7565624; conditions: previously reported; cited from earlier work
Compound,Ki [1] [µM],Ki [2] [µM],also measured
"COc1ccc2[nH]cc(C(c3ccccc3)(c3c[nH]c4ccccc34)C(F)(F)F)c2c1 (stereo not shown) [3a, 5-methoxy-3-(2,2,2-trifluoro-1-(1H-indol-3-yl)-1-phenylethyl)-1H-indole]",4.23 ± 0.03,6.04 ± 0.11,–
COc1ccc2[nH]cc(C(c3ccccc3)(c3c[nH]c4ccccc34)C(F)(F)C(F)(F)F)c2c1 (stereo not shown) [3ad],1.82 ± 0.09,11.2 ± 0.5,"effect in non-transfected control cells [3]: did not show any effect; inverse agonistic activity (effect on basal activity) at CB1 ([4]; BRET2, HEK293): less pronounced; also recorded: inverse agonistic activity; agonistic activity at human CB1 [4]: no agonistic activity; IC50 [4]: 5.22 ± 0.68 µM; agonistic activity at human CB2 [5]: no agonistic activity"
COc1ccc2[nH]cc(C(c3ccccc3)(c3c[nH]c4cccc(OC)c34)C(F)(F)F)c2c1 (stereo not shown) [3b],7.64 ± 0.8,4.75 ± 0.34,–
COc1ccc2[nH]cc(C(c3ccccc3)(c3c[nH]c4cc(F)ccc34)C(F)(F)F)c2c1 (stereo not shown) [3e],3.21 ± 0.25,4.47 ± 0.12,"inverse agonistic activity (effect on basal activity) at CB1 ([4]; BRET2, HEK293): reduced the basal activity; also recorded: inverse agonistic activity; agonistic activity at human CB1 [4]: no agonistic activity; IC50 [4]: 5.68 ± 0.54 µM; EC50 ([4]; reduction of basal activity, BRET2, HEK293, read-out: EC50, inverse agonist at CB1 receptors): 0.786 ± 0.233 µM; agonistic activity at human CB2 [5]: no agonistic activity; inhibition of CB2 receptor activation ([5]; antagonist mode, CP55,940 at its EC80, compared with CB1): weaker"
COc1ccc2[nH]cc(C(c3ccccc3)(c3c[nH]c4c(Br)cccc34)C(F)(F)F)c2c1 (stereo not shown) [3g],4.02 ± 0.22,4.62 ± 0.33,–
COc1ccc2[nH]cc(C(c3ccccc3)(c3c[nH]c4cc(F)c(F)cc34)C(F)(F)F)c2c1 (stereo not shown) [3h],4.78 ± 1.26,9.9 ± 1.45,–
Fc1cc2[nH]cc(C(c3ccccc3)(c3c[nH]c4ccccc34)C(F)(F)F)c2cc1F (stereo not shown) [3n],2.04 ± 0.08,6.14 ± 0.13,–
"c1ccc2c(Cc3c[nH]c4ccccc34)c[nH]c2c1 [I, diindolylmethane]",–,–,Ki [6]: 4.3 µM; functional activity at CB1 receptors [7]: weak inverse agonist; Ki [8]: 1.1 µM
